Reference: PMC9029529, “Distinct Mechanisms of Cytotoxicity in Novel Nitrogenous Heterocycles: Future Directions for a New Anti-Cancer Agent” (Molecules, 2022)

Tests used:
[1] = tested on: MDA-MB-231 cells; experiment: MTT assay, MDA-MB-231; format: cell-based, human; conditions: Homo sapiens, MDA-MB-231, 24 h, 0 to 250 μM, read-out: IC50 Breast Cancer (MDA-MB-231)
Protocol: (§1) To establish the cytotoxic effect of the nitrogenous derivatives, cells were treated with various concentrations of the drugs ranging from 0 to 250 μM. Following a 24 h incubation period, cell viability was assessed using the MTT assay. Mitoxantrone served as a positive control to evaluate growth inhibition. Since heterogeneity is a hallmark of cancer, the study included cell lines with diverse genomic and proteomic profiles. […] In this regard, further optimization would be required to increase the selective therapeutic potential of compound 9. To determine whether the anti-proliferative effect of the nitrogen derivatives could be translated to other malignancies, we tested the cytotoxic effect on the HCT8 (colorectal cancer) cell line. HCT8 is an adenocarcinoma driven by the Kirsten Rat Sarcoma (KRAS) mutation, unlike MCF-10A [28].
(§2) The MTT assay was utilized to examine the imidazole derivatives’ anti-proliferative activity against MCF-10A, MDA-MB-231, and HCT8 cell lines, purchased from ATCC, USA [47]. Firstly, 5 × 10^3 cells/well were seeded in a 96-well plate in 100 μL of growth medium and were subsequently cultured overnight with various concentrations of each compound ranging from 0 to 250 µM [48]. The media was aspirated, and 50 µL of serum-free media and 50 µL of MTT solution were added to each well. Next, cells were incubated at 37 °C for 3 h, then 150 µL of MTT solvent was added into each well. After that, plates were wrapped in foil and agitated for 15 min on an orbital shaker. Finally, the absorbance was measured within 1 h at OD590 nm. Half-maximal inhibitory concentration IC50 values (μM) were calculated for each compound from the dose–response curve. Experiments were performed in triplicates.

[2] = tested on: HCT8 cells; experiment: MTT assay, HCT8; format: cell-based; conditions: Homo sapiens, HCT-8, 24 h, 0 to 250 μM, read-out: IC50 Colorectal Cancer (HCT8)
Protocol: as §1, §2

[3] = tested on: KAIMRC1 cells; experiment: CellTiter-Glo assay, KAIMRC1; format: cell-based; conditions: Homo sapiens, 24 h, read-out: IC50 Breast Cancer KAIMRC1
Protocol: (§3) To validate the anti-proliferative activity of the imidazole derivatives, the compounds were tested against several cancer cell lines, which included breast cancer (MDA-MB-231, KAIMRC1, and KAIMRC2), colorectal cancer (HCT8), and acute promyelocytic leukemia cells (HL60). KAIMRC1 was isolated from a person with stage II-B breast cancer and is ER+/PR+ and HER2-. In comparison, KAIMRC2 was isolated from a person with metastasized breast cancer and is a triple-negative (ER-/PR-, and HER2-) tumor cell line.
(§4) The CellTiter-Glo assay (Promega™, Madison, WI, USA) was used to evaluate imidazole and oxazolone derivatives cytotoxicity against various cancer cell lines; MCF-10A, HL60, MDA-MB-231, and HCT8, purchased from ATCC, USA, except KAIMRC1 and KAIMRC2, which were isolated, established, and characterized in the core laboratory facility KAIMRC, Riyadh, Saudi Arabia. The cells were seeded in white 96-well plates at a density of 5 × 10^3 cells/well in a 100 μL of growth medium with various concentrations of each compound ranging from 0 to 250 µM. Cells were incubated at 37 °C for 24 h. Plates were equilibrated at RT for 30 min. A quantity of 100 µL of CellTiter-Glo reagent was added to each well and mixed for 2 min on an orbital shaker. Plates were incubated for 10 min at RT before measuring the luminescence using an Envision plate reader (Perkin Elmer). Half-maximal inhibitory concentration IC50 values (μM) were calculated for each imidazole derivative from the dose–response curve. The cytotoxic effect at a concentration <10 µM was considered strongly active and from 11 to 100 µM was considered moderately active, whereas above 100 µM was deemed non-active. Mitoxantrone was utilized as a positive control. Experiments were performed in triplicates.

[4] = tested on: KAIMRC2 cells; experiment: CellTiter-Glo assay, KAIMRC2; format: cell-based; conditions: Homo sapiens, 24 h, read-out: IC50 Breast Cancer KAIMRC2
Protocol: as §3, §4

[5] = tested on: HL60 cells; experiment: CellTiter-Glo assay, HL60; format: cell-based, human; conditions: Homo sapiens, HL-60, 24 h, read-out: IC50 Leukemia HL60
Protocol: as §3, §4

[6] = tested on: MDA-MB-231 cells; experiment: CellTiter-Glo assay, MDA-MB-231; format: cell-based; conditions: Homo sapiens, 24 h, read-out: IC50 Breast Cancer MDA-MB-231
Protocol: as §3, §4

[7] = tested on: HCT8 cells; experiment: CellTiter-Glo assay, HCT8; format: cell-based; conditions: Homo sapiens, HCT-8, 24 h, read-out: IC50 Colorectal Cancer HCT8
Protocol: as §3, §4

[8] = tested on: MCF-10A cells; experiment: MTT assay, MCF-10A; format: cell-based, human; conditions: Homo sapiens, MCF-10A, 24 h, 0 to 250 μM, read-out: IC50 Non-Malignant Breast Epithelial Cells (MCF-10A)
Protocol: as §1, §2

| SMILES | IC50 [1] | IC50 [2] | IC50 [6] | IC50 [7] | IC50 [3] | IC50 [4] | IC50 [5] | IC50 [8] |
| --- | --- | --- | --- | --- | --- | --- | --- | --- |
| CN(C)c1ccc(/C=C2\N=C(c3ccccc3)OC2=O)cc1 [Compound 4] | 69.4 µM | – | – | – | – | – | – | – |
| COc1cc(/C=C2\N=C(c3ccccc3)N(Nc3ccc([N+](=O)[O-])cc3[N+](=O)[O-])C2=O)ccc1O [Compound 11] | 57.1 µM | – | 45.4 µM | 40.4 µM | 24.8 µM | 32.2 µM | 20.9 µM | – |
| COc1ccc(/C=C2\N=C(c3ccccc3)N(N)C2=O)cc1 [Compound 13] | 78.5 µM | – | – | – | – | – | – | – |
| O=C1OC(c2ccccc2)=N/C1=C\c1ccco1 [Compound 7] | 23 µM | 73.5 µM | 60.9 µM | 91.2 µM | 39.2 µM | 87.9 µM | 67.4 µM | 63 µM |
| COc1cc(/C=C2\N=C(c3ccccc3)OC2=O)ccc1O [Compound 6] | 50.6 µM | 70.8 µM | – | – | – | – | – | 50.4 µM |
| O=C1/C(=C/c2ccco2)N=C(c2ccccc2)N1Nc1ccc([N+](=O)[O-])cc1[N+](=O)[O-] [Compound 12] | 50.8 µM | – | – | – | – | – | – | – |
| O=C1c2c(O)ccc(O)c2C(=O)c2c(NCCNCCO)ccc(NCCNCCO)c21 [Mitoxantrone, reference compound] | 3.17 µM | 0.711 µM | 1.94 µM | 5.62 µM | 1.71 µM | 0.801 µM | 0.125 µM | 2.9 µM |
| O=C1/C(=C/c2ccccc2O)N=C(c2ccccc2)N1Nc1ccc([N+](=O)[O-])cc1[N+](=O)[O-] [Compound 10] | 56 µM | – | – | – | – | – | – | – |

The next lines start with results.

| IC50 [1] | IC50 [2] | IC50 [6] | IC50 [7] | SMILES | IC50 [3] | IC50 [4] | IC50 [5] | IC50 [8] |
| --- | --- | --- | --- | --- | --- | --- | --- | --- |
| 22.9 µM | 51.1 µM | – | – | O=C1OC(c2ccccc2)=N/C1=C\c1ccccc1 [Compound 1] | 62.2 µM | 59.2 µM | – | – |
| 40 µM | – | – | – | COc1cccc(/C=C2\N=C(c3ccccc3)OC2=O)c1 [Compound 3] | 58.6 µM | 64.3 µM | – | – |
| 139 µM | – | 243 µM | – | NN1C(=O)/C(=C/c2ccccc2)N=C1c1ccccc1 [Compound 14] | 243 µM | 161 µM | – | – |
| 43.6 µM | 72.2 µM | – | 121 µM | O=C1OC(c2ccccc2)=N/C1=C\C=C\c1ccccc1 [Compound 2] | 104 µM | 121 µM | – | 65.5 µM |
| 39.6 µM | 39.1 µM | 52.1 µM | 63.7 µM | O=C1OC(c2ccccc2)=N/C1=C\c1ccccc1O [Compound 5] | 28.6 µM | 30.3 µM | 17.9 µM | 34.2 µM |
